Assay results published in US20260297042A1, “BIARYLAMIDE DERIVATIVES AND THEIR USE AS PKMYT1 INHIBITORS” (CANCER RESEARCH TECHNOLOGY LIMITED, priority 2023, published 2026).

Experiments:
WEE1 = target: T1, WEE1 (Homo sapiens, UniProt P30291); assay: Selectivity versus WEE1 assay (ADP-Glo enzymatic assay); type: biochemical; conditions: for IC50: ADP-Glo; for PKMYT1 vs. WEE1 selectivity: fold difference in selectivity for PKMYT1 over WEE1
T1 construct: purchased Thermo Fisher PR7373A
In short: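 Inhibition is measured as reduced ADP production, detected by luminescence with ADP-Glo, after enzyme (15 nM) and 30 µM ATP react for 60 min at 26° C in 1% DMSO-containing HEPES buffer, pH 7.5. Data are accepted only if replicate IC50s fall within 3-fold and r2 exceeds 0.9.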

OVCAR 3 cells = assay: Cancer cell line proliferation assay, ATP-based cell viability (Cell Titre Glow), OVCAR 3 (CCNE1-amplified); conditions: KYSE30 (normal CCNE1) GI50 vs. OVCAR 3 (CCNE1-amplified) GI50
In short: (§1)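 Sensitivity to PKMYT1 inhibitors was measured by ATP-based luminescence (CellTiter-Glo) as the proliferation endpoint. GI50, the concentration giving 50% growth inhibition, was estimated from curve fits.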

KYSE-30 cells = assay: Cancer cell line proliferation assay, ATP-based cell viability (Cell Titre Glow), KYSE-30 (normal CCNE1); conditions: Homo sapiens, KYSE-30 cells (normal CCNE1), concentration that achieves 50% cell growth proliferation inhibition, read-out: KYSE30 Gl50
In short: as §1

Human PKMYT1 = target: T2, Human PKMYT1 (Homo sapiens, UniProt Q99640); assay: PKMYT1 biochemical ADP-Glo enzymatic assay; conditions: ADP-Glo
T2 construct: Human PKMYT1 75-362 was cloned as a TEV cleavable 6xHis fusion; 6xHis (TEV cleavable) (cleaved yes); made in house; host or cells: bacterial cells
T2 sequence (Q99640 75-362): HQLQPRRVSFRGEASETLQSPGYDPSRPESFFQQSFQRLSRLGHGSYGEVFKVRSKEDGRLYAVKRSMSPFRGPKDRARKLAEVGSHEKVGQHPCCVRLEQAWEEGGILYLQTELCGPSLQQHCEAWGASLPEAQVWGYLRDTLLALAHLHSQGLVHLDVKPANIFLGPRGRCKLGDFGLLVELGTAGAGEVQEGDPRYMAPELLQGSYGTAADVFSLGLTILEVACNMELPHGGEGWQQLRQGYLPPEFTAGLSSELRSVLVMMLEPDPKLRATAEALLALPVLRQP
In short: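 IC50 derived from luminescence (ADP-Glo Max) after PKMYT1 kinase domain, 15 nM, turned over 500 µM ATP for 60 min at 26 °C. Buffer contained 10 mM MgCl2, 1 mM EGTA and 0.01% Brij-35 at pH 7.5.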

[1] = target: T3, Cellular PKMYT1 Biomarker CDK1 pT14 (Homo sapiens, UniProt Q99640); assay: Inhibition of cellular PKMYT1 biomarker CDK1 pT14 in OVCAR 3 cells (immunoblot); type: cell-based; conditions: 20 hours incubation
T3 construct: read-out CDK1 phospho-T14 immunoblot
T3 sequence (Q99640 1-499): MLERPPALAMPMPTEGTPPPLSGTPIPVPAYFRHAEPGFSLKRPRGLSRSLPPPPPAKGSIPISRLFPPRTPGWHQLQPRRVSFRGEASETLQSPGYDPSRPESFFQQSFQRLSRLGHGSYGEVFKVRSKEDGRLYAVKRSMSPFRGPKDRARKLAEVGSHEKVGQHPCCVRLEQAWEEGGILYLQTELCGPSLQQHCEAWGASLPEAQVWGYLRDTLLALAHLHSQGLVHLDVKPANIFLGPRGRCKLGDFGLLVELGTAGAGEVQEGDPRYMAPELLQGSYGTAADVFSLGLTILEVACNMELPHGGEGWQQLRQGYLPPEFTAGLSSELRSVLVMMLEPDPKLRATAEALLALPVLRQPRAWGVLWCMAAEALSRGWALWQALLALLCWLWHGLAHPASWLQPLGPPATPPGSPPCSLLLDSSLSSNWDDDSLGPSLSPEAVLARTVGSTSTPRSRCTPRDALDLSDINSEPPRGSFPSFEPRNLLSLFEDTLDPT
In short: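 Confluent OVCAR 3 cells treated with a compound concentration range for 20 h at 37 °C. Lysates analysed by automated capillary immunoblot for CDK1 phospho-T14, with vinculin, fluorescence detection; IC50 by regression.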

[2] = 15 nM WEE1, 60 minutes at 26° C., banded
[3] = banded, ">N" = at least in this band but could be higher
[4] = 15 nM PKMYT1 kinase domain, 500 µM ATP, 60 minutes at 26° C., banded
[5] = PKMYT1 kinase domain 15 nM, banded values

T1 sequence (P30291 whole entry): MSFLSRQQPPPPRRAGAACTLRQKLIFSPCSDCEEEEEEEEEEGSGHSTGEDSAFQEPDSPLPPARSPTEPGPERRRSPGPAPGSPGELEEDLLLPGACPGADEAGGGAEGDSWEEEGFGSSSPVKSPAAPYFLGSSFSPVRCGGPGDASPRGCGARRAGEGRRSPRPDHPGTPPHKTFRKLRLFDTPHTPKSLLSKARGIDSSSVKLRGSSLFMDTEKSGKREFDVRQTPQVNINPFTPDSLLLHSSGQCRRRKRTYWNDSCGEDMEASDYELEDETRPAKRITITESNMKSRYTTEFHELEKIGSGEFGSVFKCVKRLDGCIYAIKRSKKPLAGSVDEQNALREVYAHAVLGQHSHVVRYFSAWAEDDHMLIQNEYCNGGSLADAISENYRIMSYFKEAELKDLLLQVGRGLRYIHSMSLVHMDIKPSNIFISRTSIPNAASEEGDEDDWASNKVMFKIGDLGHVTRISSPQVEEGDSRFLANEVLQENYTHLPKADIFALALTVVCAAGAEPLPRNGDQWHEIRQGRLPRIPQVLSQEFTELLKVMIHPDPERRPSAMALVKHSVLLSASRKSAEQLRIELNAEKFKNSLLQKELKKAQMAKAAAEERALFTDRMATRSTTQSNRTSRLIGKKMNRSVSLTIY

Cc1nc(Nc2ncc(C(=O)Nc3c(C)ccc(O)c3C)s2)cc(N2CCN(CCO)CC2)n1 [BAA-220, N-(3-hydroxy-2,6-dimethyl-phenyl)-2-[[6-[4-(2-hydroxyethyl)piperazin-1-yl]-2-methyl-pyrimidin-4-yl]amino]thiazole-5-carboxamide]
IC50 (WEE1; [2]): 50 to 1000 nM
PKMYT1 vs. WEE1 selectivity (WEE1; [3]): W (10-<100 fold)
Selectivity ratio KYSE30 Gl50 vs. OVCAR3 Gl50 (OVCAR 3 cells): Y (>20 fold)
GI50 (KYSE-30 cells): > 5 µM
IC50 (Human PKMYT1; [4]): < 50 nM
IC50 [1]: 100 to 1000 nM

Cc1ccc(O)c(C)c1NC(=O)c1cnc(Nc2nn(CCF)cc2Br)s1 [BAA-585, 2-((4-bromo-1-(2-fluoroethyl)-1H-pyrazol-3-yl)amino)-N-(3-hydroxy-2,6-dimethylphenyl)thiazole-5-carboxamide]
IC50 (WEE1; WEE1 15 nM, banded values): 1000 to 11000 nM
PKMYT1 vs. WEE1 selectivity (WEE1; banded): X (100-<1000 fold)
Selectivity ratio KYSE30 Gl50 vs. OVCAR3 Gl50 (OVCAR 3 cells): Y (>20 fold)
GI50 (KYSE-30 cells): 0.5 to 5 µM
IC50 (Human PKMYT1; [5]): < 50 nM
IC50 [1]: < 100 nM

Cc1ccc(F)c(Nc2ncc(C(=O)Nc3c(C)ccc(O)c3C)s2)n1 [BAA-420, 2-((3-fluoro-6-methylpyridin-2-yl)amino)-N-(3-hydroxy-2,6-dimethylphenyl)thiazole-5-carboxamide]
IC50 (WEE1; WEE1 15 nM, banded values): > 11000 nM
PKMYT1 vs. WEE1 selectivity (WEE1; banded): Y (1000-5000 fold)
Selectivity ratio KYSE30 Gl50 vs. OVCAR3 Gl50 (OVCAR 3 cells): Y (>20 fold)
GI50 (KYSE-30 cells): 0.5 to 5 µM
IC50 (Human PKMYT1; [5]): < 50 nM
IC50 [1]: < 100 nM

CCc1cn(CCF)nc1Nc1ncc(C(=O)Nc2c(C)ccc(O)c2C)s1 [BAA-588, 2-((4-ethyl-1-(2-fluoroethyl)-1H-pyrazol-3-yl)amino)-N-(3-hydroxy-2,6-dimethylphenyl)thiazole-5-carboxamide]
IC50 (WEE1; WEE1 15 nM, banded values): 1000 to 11000 nM
PKMYT1 vs. WEE1 selectivity (WEE1; banded): X (100-<1000 fold)
Selectivity ratio KYSE30 Gl50 vs. OVCAR3 Gl50 (OVCAR 3 cells): Y (>20 fold)
GI50 (KYSE-30 cells): 0.5 to 5 µM
IC50 (Human PKMYT1; [5]): < 50 nM
IC50 [1]: < 100 nM

Cc1ccc(O)c(C)c1NC(=O)c1cnc(Nc2nn(C)c3ccc(F)cc23)s1 [BAA-453, 2-((5-fluoro-1-methyl-1H-indazol-3-yl)amino)-N-(3-hydroxy-2,6-dimethylphenyl)thiazole-5-carboxamide]
IC50 (WEE1; WEE1 15 nM, banded values): > 11000 nM
PKMYT1 vs. WEE1 selectivity (WEE1; banded): X (100-<1000 fold)
Selectivity ratio KYSE30 Gl50 vs. OVCAR3 Gl50 (OVCAR 3 cells): Y (>20 fold)
GI50 (KYSE-30 cells): > 5 µM
IC50 (Human PKMYT1; [5]): 50 to 1000 nM
IC50 [1]: < 100 nM

Cc1ccc(O)c(C)c1NC(=O)c1cnc(Nc2cc(N3CCN(C)CC3)ncn2)s1 [BAA-581, N-(3-hydroxy-2,6-dimethylphenyl)-2-((6-(4-methylpiperazin-1-yl)pyrimidin-4-yl)amino)thiazole-5-carboxamide]
IC50 (WEE1; WEE1 15 nM, banded values): 50 to 1000 nM
PKMYT1 vs. WEE1 selectivity (WEE1; banded): W (10-<100 fold)
Selectivity ratio KYSE30 Gl50 vs. OVCAR3 Gl50 (OVCAR 3 cells): Y (>20 fold)
GI50 (KYSE-30 cells): > 5 µM
IC50 (Human PKMYT1; [5]): < 50 nM
IC50 [1]: < 100 nM

Cc1cn(CC(=O)N2CCC(C(F)(F)F)C2)nc1Nc1ncc(C(=O)Nc2c(C)ccc(O)c2C)s1 (stereo not drawn) [BAA-504, N-(3-hydroxy-2,6-dimethylphenyl)-2-((4-methyl-1-(2-oxo-2-(3-(trifluoromethyl)pyrrolidin-1-yl)ethyl)-1H-pyrazol-3-yl)amino)thiazole-5-carboxamide]
IC50 (WEE1; WEE1 15 nM, banded values): 1000 to 11000 nM
PKMYT1 vs. WEE1 selectivity (WEE1; banded): X (100-<1000 fold)
Selectivity ratio KYSE30 Gl50 vs. OVCAR3 Gl50 (OVCAR 3 cells): Y (>20 fold)
GI50 (KYSE-30 cells): > 5 µM
IC50 (Human PKMYT1; [5]): < 50 nM
IC50 [1]: 100 to 1000 nM

Cc1cn(CC(F)F)nc1Nc1ncc(C(=O)Nc2c(C)ccc(O)c2C)s1 [BAA-478, 2-((1-(2,2-difluoroethyl)-4-methyl-1H-pyrazol-3-yl)amino)-N-(3-hydroxy-2,6-dimethylphenyl)thiazole-5-carboxamide]
IC50 (WEE1; WEE1 15 nM, banded values): 1000 to 11000 nM
PKMYT1 vs. WEE1 selectivity (WEE1; banded): X (100-<1000 fold)
Selectivity ratio KYSE30 Gl50 vs. OVCAR3 Gl50 (OVCAR 3 cells): Y (>20 fold)
GI50 (KYSE-30 cells): > 5 µM
IC50 (Human PKMYT1; [5]): < 50 nM
IC50 [1]: < 100 nM

Cc1ccc(O)c(C)c1NC(=O)c1cnc(Nc2cc(Cl)cc(NC(=O)C(C)(C)C)n2)s1.Cl [BAA-334, 2-((4-chloro-6-pivalamidopyridin-2-yl)amino)-N-(3-hydroxy-2,6-dimethylphenyl)thiazole-5-carboxamide hydrochloride]
IC50 (WEE1; [2]): > 11000 nM
PKMYT1 vs. WEE1 selectivity (WEE1; [3]): X (100-<1000 fold)
Selectivity ratio KYSE30 Gl50 vs. OVCAR3 Gl50 (OVCAR 3 cells): Y (>20 fold)
GI50 (KYSE-30 cells): 0.5 to 5 µM
IC50 (Human PKMYT1; [4]): 50 to 1000 nM
IC50 [1]: < 100 nM

Cc1nc(Nc2ncc(C(=O)Nc3c(C)ccc(O)c3C)s2)cc(N2CCOCC2)n1 [BAA-572, N-(3-hydroxy-2,6-dimethylphenyl)-2-((2-methyl-6-morpholinopyrimidin-4-yl)amino)thiazole-5-carboxamide]
IC50 (WEE1; WEE1 15 nM, banded values): 50 to 1000 nM
PKMYT1 vs. WEE1 selectivity (WEE1; banded): W (10-<100 fold)
Selectivity ratio KYSE30 Gl50 vs. OVCAR3 Gl50 (OVCAR 3 cells): Y (>20 fold)
GI50 (KYSE-30 cells): 0.5 to 5 µM
IC50 (Human PKMYT1; [5]): < 50 nM
IC50 [1]: < 100 nM

COCC1(N(C)C(=O)Cn2cc(C)c(Nc3ncc(C(=O)Nc4c(C)ccc(O)c4C)s3)n2)CC1 [BAA-607]
IC50 (WEE1; WEE1 15 nM, banded values): 1000 to 11000 nM
PKMYT1 vs. WEE1 selectivity (WEE1; banded): X (100-<1000 fold)
Selectivity ratio KYSE30 Gl50 vs. OVCAR3 Gl50 (OVCAR 3 cells): Y (>20 fold)
GI50 (KYSE-30 cells): > 5 µM
IC50 (Human PKMYT1; [5]): < 50 nM
IC50 [1]: < 100 nM

CCN(C(=O)C(CO)n1cc(C)c(Nc2ncc(C(=O)Nc3c(C)ccc(O)c3C)s2)n1)C1CC1 (stereo not drawn) [BAA-592, 2-((1-(1-(cyclopropyl(ethyl)amino)-3-hydroxy-1-oxopropan-2-yl)-4-methyl-1H-pyrazol-3-yl)amino)-N-(3-hydroxy-2,6-dimethylphenyl)thiazole-5-carboxamide]
IC50 (WEE1; WEE1 15 nM, banded values): 1000 to 11000 nM
PKMYT1 vs. WEE1 selectivity (WEE1; banded): X (100-<1000 fold)
Selectivity ratio KYSE30 Gl50 vs. OVCAR3 Gl50 (OVCAR 3 cells): Y (>20 fold)
GI50 (KYSE-30 cells): > 5 µM
IC50 (Human PKMYT1; [5]): < 50 nM
IC50 [1]: < 100 nM

Cc1ccc(O)c(C)c1NC(=O)c1cnc(Nc2nn(CC(F)F)cc2Cl)s1 [BAA-569, 2-((4-chloro-1-(2,2-difluoroethyl)-1H-pyrazol-3-yl)amino)-N-(3-hydroxy-2,6-dimethylphenyl)thiazole-5-carboxamide]
IC50 (WEE1; WEE1 15 nM, banded values): 1000 to 11000 nM
PKMYT1 vs. WEE1 selectivity (WEE1; banded): X (100-<1000 fold)
Selectivity ratio KYSE30 Gl50 vs. OVCAR3 Gl50 (OVCAR 3 cells): Y (>20 fold)
GI50 (KYSE-30 cells): 0.5 to 5 µM
IC50 (Human PKMYT1; [5]): < 50 nM
IC50 [1]: < 100 nM
